Measured values reported in patent US12686657B2, “Anti-inflammatory carboxamide derivatives” (BIOMEDCODE HELLAS SA, priority 2021, dated 2026).
Like-named read-outs stand apart in the source and are kept apart here.

How the values were obtained:
[1] = system: hTNF-activated wt SFs; assay: CCL5 and CCL20 ELISA on hTNF-activated wild type synovial fibroblasts; type: cell-based, mice
From the text: Primary SFs were derived from a) human TNF transgenic (hTNFTg) mice (Keffer et al., 1991) as well as from b) CBA/C57BL6 wild type mice.
By testing the compounds in a) and b) we accessed their effect on the activated SFs phenotype caused by both the endogenous hTNF upregulation and the exogenous hTNF administration. In this way it was confirm the ability of the compounds of the invention to act in the TNF pathway directly downstream of TNF.
SFs were isolated as previously described by Armaka et al., 2009, from the ankle joints of hTNFtg or CBA/C57BL6 wild type (wt) littermates. Briefly, ankle joints were digested with Collagenase IV (Sigma Aldrich, C5138) for 45 minutes at a 37° C. shaking waterbath and after 5 days in culture at 37° C. and 5% CO2, a depletion of CD45+ lineage cells was performed using a Biotin anti-mouse CD45 Antibody (Biolegend, 103104) and Dynabeads™ Biotin Binder (ThermoFisher 11047), according to the manufacturer's protocol. After 10 days in culture, SFs were seeded overnight (O/N) at a concentration of 2×10^4 cells/well in a 96 well plate in 1×DMEM, supplemented with 100 U/ml Penicillin Streptomycin (P/S) and 10% Fetal Bovine Serum (FBS). The next day the cells were synchronized by starvation that included their O/N plating in low serum medium (0.5% FBS). Following the O/N starvation, the hTNFg and the WT SFs were treated with different concentrations of the experimental compounds. The SFs were at the same time activated with 10 ng/ml hTNF (Peprotech, 300-01A). 48 h following the treatment the cell culture supernatants were collected and analyzed by ELISA (R&S Systems, Duoset, DY478 and DY760) according to the manufacturer's protocol, for the detection of CCL5/Rantes and CCL20/Mip3, two known inflammatory chemokines. The IC50 values were determined as the concentration of the compounds required to reduce the levels of secreted CCL5 and CCL20 by 50%.
In order to determine the efficiency of the compounds of the invention, the same protocol was repeated with some minor modifications. Mainly, the concentration of hTNF was 10-fold reduced, i.e., adjusted to 1 ng/ml, and the SFs were seeded overnight at a concentration of 10^4 cells/well.
Table 7 summarizes the reduction of CCL5 and CCL20 levels achieved with the test compounds of the invention. Data are presented as percentages of the chemokine levels detected in treated cells compared to 100% levels of the chemokines detected in the untreated cells.
Table 8 summarizes the values of IC50 and toxicity for the test compounds of the invention. Dose response curves regarding the WT SFs were produced with 10 ng/ml hTNF stimulation for all compounds, with the exception of the compounds E and F, where WT cells were induced using hTNF at 1 ng/ml: […]

[2] = system: C57BL/6J mice; assay: In vivo LPS acute systemic inflammation model, serum cytokines and chemokines (Legendplex); design: key to IL-1β in sera, Average / IL-17A in sera, Average / IL-27 in sera, Average / GM-CSF in sera, Average / KC in sera, Average / MCP1 in sera, Average / IP-10 in sera, Average / MIP-1A in sera, Average / MIP-1B in sera, Average / MDC in sera, Average / IL-23 in sera, Average / TNF-α in sera, Average: serum concentration in pg/ml; IL12p70 in sera, Average / IFN-γ in sera, Average: unit: pg/ml; details: 1 μg LPS i.p.
Method: In order to evaluate in vivo the anti-inflammatory effect of the test compounds a model of in vivo LPS acute systemic inflammation was used where C57BL/6J mice were challenged by administration of 1 μg LPS. Each one of the compounds 51 to 53 was administered to C57BL/6J mice per os in two doses of 50 mg. Two hours after administering the first dose, the animals received the second p.o. dose of each compound and were also challenged with 1 μg LPS intraperitoneally. Sera samples were collected 1.5 hrs post induction in order to measure the levels of 13 cytokines using the pro-inflammatory panel from Legendplex (cat no 740446) and following manufacturer's instructions. Four biological replicates were performed and the average and SEM were calculated with the obtained results.
The same protocol was followed but administering compound 53 at 100 mg/kg. In this case both the levels of the 13 cytokines but also of 13 chemokines were measured, using the pro-inflammatory panel from Legendplex (cat no 740007).
The anti-inflammatory effect of the test compounds 51, 52 and 53 was assessed in vivo in the LPS model of acute inflammation. Administration of the endotoxin Lipopolysaccharide (LPS) to mice induces acute inflammatory responses similar to the inflammatory response that occurs during the early stages of septic shock. Shortly after administration of the endotoxin, cytokines and chemokines are released. This model is fast, cost-effective and widely used for screening of anti-inflammatory properties of test items aimed for treatment of a number of inflammatory and autoimmune conditions (Seemann et al., 2017; Stortz et al., 2017).
Sera samples from the treated mice with the 50 mg/Kg doses of the test compounds 51-53 were evaluated using the mouse pro-inflammatory panel of Legendplex and the data acquired are presented as pg/ml in Table 11. Vehicle, 52 and 53 were tested in quadruplicates (vehicle_1-4), 51 in triplicate (51_1-3).
Sera samples from the treated mice with test compounds 53 with 100 mg/Kg were also evaluated using the mouse pro-inflammatory cytokine and chemokine panel of Legendplex and the effect of compound 53 at a higher dose (100 mg/kg) in inhibiting inflammatory cytokines and chemokines is presented in the Table 12 below.

[3] = 1 ng/mL hTNF, compound 10 μM, 48 h
[4] = 1 ng/mL hTNF, compound 50 μM, 48 h
[5] = 10 ng/mL hTNF, compound 10 μM, 48 h
[6] = 10 ng/mL hTNF, compound 50 μM, 48 h
[7] = Mus musculus, Fibroblast, 10 ng/ml hTNF stimulation, read-out: IC50 (μM) CCL5 WT
[8] = Mus musculus, Fibroblast, 10 ng/ml hTNF stimulation, read-out: IC50 (μM) CCL20 WT
[9] = 50 mg/Kg per os, two doses, sera 1.5 hrs post induction
[10] = 1 ng/mL hTNF, compound 25 μM, 48 h
[11] = 10 ng/mL hTNF, compound 25 μM, 48 h
[12] = Mus musculus, Fibroblast, hTNF at 1 ng/ml, read-out: IC50 (μM) CCL5 WT
[13] = Mus musculus, Fibroblast, hTNF at 1 ng/ml, read-out: IC50 (μM) CCL20 WT

| Compound | CCL5 WT, percentage of level in untreated cells [1, 3] [%] | CCL20 WT, percentage of level in untreated cells [1, 3] [%] | CCL5 WT, percentage of level in untreated cells [1, 4] [%] | CCL5 WT, percentage of level in untreated cells [1, 5] [%] | CCL20 WT, percentage of level in untreated cells [1, 5] [%] | CCL5 WT, percentage of level in untreated cells [1, 6] [%] | IC50 [1, 7] [µM] | IC50 [1, 8] [µM] | IL-1α in sera, Average [2, 9] [pg/mL] | IL-1β in sera, Average [2, 9] [pg/mL] | IL-6 in sera, Average [2, 9] [pg/mL] | IL-10 in sera, Average [2, 9] [pg/mL] | IL-17A in sera, Average [2, 9] [pg/mL] | MCP-1 in sera, Average [2, 9] [pg/mL] | CCL20 WT, percentage of level in untreated cells [1, 4] [%] | CCL20 WT, percentage of level in untreated cells [1, 6] [%] | CCL5 WT, percentage of level in untreated cells [1, 10] [%] | CCL20 WT, percentage of level in untreated cells [1, 10] [%] | CCL5 WT, percentage of level in untreated cells [1, 11] [%] | CCL20 WT, percentage of level in untreated cells [1, 11] [%] | further results |
| --- | --- | --- | --- | --- | --- | --- | --- | --- | --- | --- | --- | --- | --- | --- | --- | --- | --- | --- | --- | --- | --- |
| COc1cc(N)c(Cl)cc1C(=O)NCC1(c2ccc(Cl)cc2)CCCCCC1 [Compound 52, 4-amino-5-chloro-N-((1-(4-chlorophenyl)cycloheptyl)methyl)-2-methoxybenzamide] | 48 | 45 | 22 | 27 | 15 | 14 | 1.4 | 1.5 | 43.1 | 118.5 | 3988.8 | 1692.2 | 27.7 | 4916.5 |  |  |  |  |  |  | activity at 50 µM ([1]; Mus musculus, Fibroblast, 48 h, 1 ng/mL hTNF, compound 50 μM, 48 h, read-out: CCL20 WT, percentage of level in untreated cells): 17% |
| COc1cc(N)c(Cl)cc1C(=O)NCC1(c2ccc(Cl)cc2)CCCCC1 [Compound 51, 4-amino-5-chloro-N-((1-(4-chlorophenyl)cyclohexyl)methyl)-2-methoxybenzamide] | 54 | 63 | 20 | 67 | 14 | 39 | 10.4 | 3 | 27.4 | 87.0 | 4702.5 | 1774.5 | 43.8 | 4689.1 | 35 | 5 |  |  |  |  |  |
| COc1cc(N)c(Cl)cc1C(=O)NCC1(Nc2ccc(Cl)cc2)CCCCCC1 [Compound 53, 4-amino-5-chloro-N-((1-((4-chlorophenyl)amino)cycloheptyl)methyl)-2-methoxybenzamide] | 16 | 26 | 8 | 35 | 15 | 26 | 2.9 | 2.3 | 67.3 | 113.1 | 5145 | 2616.1 | 55.1 | 5149 | 9 | 8 |  |  |  |  | GM-CSF in sera, Average ([2]; 100 mg/kg p.o.): 9.8; IFN-γ in sera, Average ([2]; 100 mg/kg p.o.): 6.7; IL12p70 in sera, Average ([2]; 100 mg/kg p.o.): 5.7; IL-1β in sera, Average ([2]; 100 mg/kg p.o.): 12.4; IL-17A in sera, Average ([2]; 100 mg/kg p.o.): 3.7; IL-23 in sera, Average ([2]; 100 mg/kg p.o.): 16.6; IL-27 in sera, Average ([2]; 100 mg/kg p.o.): 16.1; IP-10 in sera, Average ([2]; 100 mg/kg p.o.): 45.2; KC in sera, Average ([2]; 100 mg/kg p.o.): 4227.5; MCP1 in sera, Average ([2]; 100 mg/kg p.o.): 1246.2; MDC in sera, Average ([2]; 100 mg/kg p.o.): 56.6; MIP-1A in sera, Average ([2]; 100 mg/kg p.o.): 244.3; MIP-1B in sera, Average ([2]; 100 mg/kg p.o.): 1301.1; TNF-α in sera, Average ([2]; 100 mg/kg p.o.): 136.8 |
| COc1cc(N)c(Cl)cc1C(=O)NCC1(Nc2cccc(OC(F)(F)F)c2)CCCCCC1 [F, 4-amino-5-chloro-2-methoxy-N-((1-((3-(trifluoromethoxy)phenyl)amino)cycloheptyl)methyl)benzamide] | 0 |  |  | 12 |  |  |  |  |  |  |  |  |  |  |  |  | 0 | 7 | 9 | 10 | IC50 [1, 12]: 0.09 µM; IC50 [1, 13]: 0.129 µM |
| COc1cc(N)c(Cl)cc1C(=O)NCC1(Nc2ccc(F)cc2Cl)CCCCCC1 [E, 4-amino-5-chloro-N-((1-((2-chloro-4-fluorophenyl)amino)cycloheptyl)methyl)-2-methoxybenzamide] | 0 | 2 |  | 13 | 5 |  |  |  |  |  |  |  |  |  |  |  | 0 | 3 | 11 | 2 | IC50 [1, 12]: 0.59 µM; IC50 [1, 13]: 0.167 µM |
